The results in this text go back to BindingDB's records for patent US9161922 (Case Western Reserve University, 2015).

Chain of Primary amine oxidase, liver isozyme (Q29437 17-762 limits assumed): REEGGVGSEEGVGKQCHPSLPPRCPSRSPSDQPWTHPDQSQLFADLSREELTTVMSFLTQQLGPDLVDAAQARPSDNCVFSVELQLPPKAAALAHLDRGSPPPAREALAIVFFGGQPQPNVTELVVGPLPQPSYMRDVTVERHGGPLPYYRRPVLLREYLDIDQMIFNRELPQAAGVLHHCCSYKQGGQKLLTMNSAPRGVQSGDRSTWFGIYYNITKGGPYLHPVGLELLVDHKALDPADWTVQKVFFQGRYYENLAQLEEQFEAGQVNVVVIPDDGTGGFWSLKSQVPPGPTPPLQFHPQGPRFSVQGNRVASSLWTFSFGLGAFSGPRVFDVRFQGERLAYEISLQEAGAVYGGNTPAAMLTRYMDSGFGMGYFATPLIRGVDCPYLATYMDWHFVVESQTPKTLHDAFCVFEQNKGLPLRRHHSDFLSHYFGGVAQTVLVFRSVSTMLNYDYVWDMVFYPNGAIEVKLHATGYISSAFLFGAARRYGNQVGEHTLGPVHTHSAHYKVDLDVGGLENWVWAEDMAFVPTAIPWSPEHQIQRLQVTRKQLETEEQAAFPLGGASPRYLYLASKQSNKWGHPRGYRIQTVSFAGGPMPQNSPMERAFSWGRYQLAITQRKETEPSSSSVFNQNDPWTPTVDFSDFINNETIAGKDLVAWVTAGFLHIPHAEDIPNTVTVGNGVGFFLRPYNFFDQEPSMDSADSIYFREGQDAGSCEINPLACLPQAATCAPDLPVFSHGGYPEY

The assay addresses Primary amine oxidase, liver isozyme (Bos taurus, UniProt Q29437). Nature of the assay: Inhibition Assay. Conditions: pH 7.2; 30 °C. Here is the method: In the following Examples, 0.9 mL aliquots of a solution of candidate inhibitor in 100 mM potassium phosphate buffer, pH 7.2 was mixed bovine plasma amine oxidase (0.1 mL, about […]) and incubated at 30° C. aerobically. Aliquots (0.1 mL) were periodically withdrawn using disposable calibrated Drummond micropipettes and diluted with 1.0 mL of benzylamine (5 mM in 50 mM sodium phosphate buffer, pH 7.2) in a 1 cm quartz cuvette (1.5 mL volume). The rate of oxidation of benzylamine to benzaldehyde was measured by recording the increase in absorbance at 250 nm for 1 minute and compared to the rate of benzylamine oxidation in a companion control solution of enzyme without inhibitor. The concentration of active BPAO was estimated from the rate of benzylamine oxidation. Inhibitory potency values (IC50 values) and partition values for inactivation of BPAO were measured at various times as in indicated in the Tables.
In turn, `NCC#CCNCCc1ccccc1` [US9161922, Table 1, Compound 2] registered a concentration for half-maximal inhibition (IC50) of 500 µM.

Regarding `NCC#Cc1ccccc1` [US9161922, Table 1, Compound 3], the IC50 was determined as 700 µM. The figure for `N#CC#CCN` [US9161922, Table 1, Compound 5] is 13 µM. For `NCC#CCN` [US9161922, Table 1, Compound 6] the value was 20 µM; for `NCC#CC#CCN` [US9161922, Table 1, Compound 7], 9 µM; for `NC/C=C/CN` [US9161922, Table 1, Compound 8], 2000 µM.

Regarding `NC/C=C(\Cl)CN` [US9161922, Table 1, Compound 9], the IC50 was determined as 24 µM. The molecule `CC#CCCN` [US9161922, Table 2, Compound 2] registered an IC50 of 10 µM. The figure for `NCCC#Cc1ccccc1` [US9161922, Table 2, Compound 3] is 13.5 µM; for `NCCC#Cc1cccnc1` [US9161922, Table 2, Compound 6] it is 3.6 µM. Molecule `NCCC#CCc1ccccc1` [US9161922, Table 2, Compound 7] showed a half-inhibitory concentration (IC50) of 4.6 µM. The figure for `CC#CC(CN)c1ccccc1` (stereo not drawn) [US9161922, Table 2, Compound 8] is 108 µM; for `CC#CCC(N)c1ccccc1` (stereo not drawn) [US9161922, Table 2, Compound 9] it is 6500 µM.
